The record followed here is PubChem BioAssay AID328 (DTP/NCI, 2004).

Values joined by “and” are separate entries in the source; they are usually repeats but may differ in a detail not shown here. Equal values may be shown once. Toxic doses and inconclusive results are not listed.

The experiment has as its system BDF1 mice, P388 leukemia ip, median survival T/C. Nature of the experiment: NCI In Vivo Anticancer Drug Screen. Data for tumor model P388 Leukemia (intraperitoneal) in B6D2F1 (BDF1) mice. The note with it: endpoint: median survival time, higher = longer survival. An outline of the steps: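 Antitumour effect was judged in vivo: survival in drug-treated mice, normalised to that of vehicle-dosed controls, gives the reported T/C.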

The mark [1] stands for this setting: dose: 100.0 mg/kg/injection, schedule: Q01DX009 (ip), vehicle: Klucel (hydroxypropylcellulose) (HPC).
Where [2] appears, read: dose: 50.0 mg/kg/injection, schedule: Q01DX009 (ip), vehicle: saline with Tween-80.
The mark [3] stands for this setting: dose: 100.0 mg/kg/injection, schedule: Q01DX009 (ip), vehicle: saline with Tween-80.
Where [4] appears, read: dose: 200.0 mg/kg/injection, schedule: Q01DX009 (ip), vehicle: saline with Tween-80.
[5] abbreviates: dose: 100.0 mg/kg/injection, schedule: Q04DX003 (ip), vehicle: saline with Tween-80.
[6] abbreviates: dose: 200.0 mg/kg/injection, schedule: Q04DX003 (ip), vehicle: saline with Tween-80.
[7] abbreviates: dose: 6.25 mg/kg/injection, schedule: Q01DX009 (ip), vehicle: Klucel (hydroxypropylcellulose) (HPC).
Where [8] appears, read: dose: 12.5 mg/kg/injection, schedule: Q01DX009 (ip), vehicle: Klucel (hydroxypropylcellulose) (HPC).
[9] abbreviates: dose: 100.0 mg/kg/injection, schedule: Q01DX009 (ip), vehicle: other.
Where [10] appears, read: dose: 100.0 mg/kg/injection, schedule: Q04DX003 (ip), vehicle: other.
Setting [11] is: dose: 200.0 mg/kg/injection, schedule: Q01DX009 (ip), vehicle: other.
Setting [12] is: dose: 400.0 mg/kg/injection, schedule: Q01DX009 (ip), vehicle: other.
[13] abbreviates: dose: 400.0 mg/kg/injection, schedule: Q04DX003 (ip), vehicle: other.
The mark [14] stands for this setting: dose: 400.0 mg/kg/injection, schedule: Q04DX003 (ip), vehicle: saline with Tween-80.
[15] abbreviates: dose: 50.0 mg/kg/injection, schedule: Q01DX009 (ip), vehicle: saline.

Turning to `O=C(/C=C\c1ccc(O)cc1)c1ccccc1`, the T/C was 105 % of control under setting [1]; 108 % of control (dose: 100.0 mg/kg/injection, schedule: Q04DX003 (ip), vehicle: Klucel (hydroxypropylcellulose) (HPC)); 110 % of control (dose: 200.0 mg/kg/injection, schedule: Q01DX009 (ip), vehicle: Klucel (hydroxypropylcellulose) (HPC)); 100 % of control (dose: 200.0 mg/kg/injection, schedule: Q04DX003 (ip), vehicle: Klucel (hydroxypropylcellulose) (HPC)); 110 % of control (dose: 400.0 mg/kg/injection, schedule: Q01DX009 (ip), vehicle: Klucel (hydroxypropylcellulose) (HPC)); 104 % of control (dose: 400.0 mg/kg/injection, schedule: Q04DX003 (ip), vehicle: Klucel (hydroxypropylcellulose) (HPC)).
On to `N#C/C(=C\C=C\c1ccccc1)C(N)=O`, for which the T/C by setting is: under setting [2], 110 % of control; under setting [3], 120 % of control; under setting [4], 120 % of control.
With `COC(=O)/C=C1/OC(=O)CC1(C)C`, the T/C reads like this: (dose: 100.0 mg/kg/injection, schedule: Q01DX001 (ip), vehicle: saline with Tween-80) 105 % of control; (dose: 200.0 mg/kg/injection, schedule: Q01DX001 (ip), vehicle: saline with Tween-80) 95 % of control; (dose: 400.0 mg/kg/injection, schedule: Q01DX001 (ip), vehicle: saline with Tween-80) 100 % of control.
For the molecule `C[N+](C)(CCc1ccccc1)CC(O)COc1ccccc1` (stereo not given), the T/C runs as follows: (dose: 9.5 mg/kg/injection, schedule: Q01DX009 (ip), vehicle: Klucel (hydroxypropylcellulose) (HPC)) 96 % of control; (dose: 9.5 mg/kg/injection, schedule: Q04DX003 (ip), vehicle: Klucel (hydroxypropylcellulose) (HPC)) 95 % of control; (dose: 19.0 mg/kg/injection, schedule: Q01DX009 (ip), vehicle: Klucel (hydroxypropylcellulose) (HPC)) 96 % of control; (dose: 19.0 mg/kg/injection, schedule: Q04DX003 (ip), vehicle: Klucel (hydroxypropylcellulose) (HPC)) 95 % of control; (dose: 38.0 mg/kg/injection, schedule: Q04DX003 (ip), vehicle: Klucel (hydroxypropylcellulose) (HPC)) 100 % of control.
For the molecule `CC1OCC2OC(C)OC(C(COC(c3ccccc3)(c3ccccc3)c3ccccc3)OS(C)(=O)=O)C2O1` (stereo not given), the T/C is, setting by setting: (dose: 100.0 mg/kg/injection, schedule: Q04DX003 (ip), vehicle: saline) 100 % of control; (dose: 200.0 mg/kg/injection, schedule: Q04DX003 (ip), vehicle: saline) 104 % of control; (dose: 400.0 mg/kg/injection, schedule: Q04DX003 (ip), vehicle: saline) 108 % of control.
Consider `Cc1nc2nc(N)nc(N)c2nc1C`, for which the T/C is 100 % of control under setting [2]; 104 % of control under setting [3]; 95 % of control under setting [5]; 100 % of control under setting [4]; 95 % of control under setting [6].
On to `Cc1c2c(cc3c1[nH]c1ccccc13)C=NCC2`, for which the T/C was 93 % of control under setting [2], 99 % of control under setting [3] and 101 % of control under setting [4].
As for `C[S+](C)N(c1ccccc1)C(C)(C)C`, the T/C runs as follows: (dose: 12.5 mg/kg/injection, schedule: Q04DX003 (ip), vehicle: saline with Tween-80) 99 % of control; (dose: 25.0 mg/kg/injection, schedule: Q04DX003 (ip), vehicle: saline with Tween-80) 104 % of control; (dose: 50.0 mg/kg/injection, schedule: Q04DX003 (ip), vehicle: saline with Tween-80) 89 % of control.
As for `COc1cc(N2C(N)=NC(N)=NC2(C)C)cc(OC)c1OC`, the T/C (dose: 6.25 mg/kg/injection, schedule: Q04DX003 (ip), vehicle: saline) was 100 % of control; the T/C (dose: 12.5 mg/kg/injection, schedule: Q04DX003 (ip), vehicle: saline) is 115 % of control; the T/C (dose: 25.0 mg/kg/injection, schedule: Q04DX003 (ip), vehicle: saline) was 100 % of control.
Regarding `O=C1C(Cl)=C(N2CCOCC2)C(=O)c2ccccc21`, the T/C is, setting by setting: under setting [7], 118 % of control; under setting [8], 108 % of control; (dose: 25.0 mg/kg/injection, schedule: Q01DX009 (ip), vehicle: Klucel (hydroxypropylcellulose) (HPC)) 114 % of control.
For `C#CC[N+](CCO)(CCO)CCCCCCCCCCCCCCCCCC`, the T/C runs as follows: (dose: 3.13 mg/kg/injection, schedule: Q01DX009 (ip), vehicle: Klucel (hydroxypropylcellulose) (HPC)) 110 % of control; under setting [7], 109 % of control; under setting [8], 113 % of control and 120 % of control.
For `CC1CCCC[N-]1.CC1CCCC[N-]1.[Cl][Pt+2][Cl]` (stereo not given), the T/C runs as follows: (dose: 50.0 mg/kg/injection, schedule: Q01DX009 (ip), vehicle: Klucel (hydroxypropylcellulose) (HPC)) 103 % of control; under setting [1], 97 % of control.
`CCCCCCCCCC(=O)CCCCCCC`: the T/C by setting is: (dose: 50.0 mg/kg/injection, schedule: Q01DX009 (ip), vehicle: other) 100 % of control; under setting [9], 100 % of control; under setting [10], 100 % of control; (dose: 118.0 mg/kg/injection, schedule: Q04DX003 (ip), vehicle: other) 104 % of control; (dose: 178.0 mg/kg/injection, schedule: Q04DX003 (ip), vehicle: other) 109 % of control and 118 % of control; under setting [11], 104 % of control. Further, the T/C (dose: 266.0 mg/kg/injection, schedule: Q04DX003 (ip), vehicle: other) is 95 % of control; the T/C under setting [12] was 95 % of control; the T/C under setting [13] was 109 % of control and 118 % of control.
For the molecule `COC(=O)c1nc2c(C)nc(N(C)C)nc2[nH]c1=O`, the T/C by setting is: under setting [5], 101 % of control; under setting [6], 107 % of control; under setting [14], 100 % of control.
Take `N#Cc1cn[nH]c1N`: the T/C reads like this: under setting [15], 100 % of control; (dose: 100.0 mg/kg/injection, schedule: Q01DX009 (ip), vehicle: saline) 109 % of control; (dose: 200.0 mg/kg/injection, schedule: Q01DX009 (ip), vehicle: saline) 98 % of control.
Take `O=[N+]([O-])c1cccc(OCCCOc2ccccc2)c1`: the T/C by setting is: under setting [9], 100 % of control; under setting [10], 110 % of control; under setting [11], 100 % of control; (dose: 200.0 mg/kg/injection, schedule: Q04DX003 (ip), vehicle: other) 110 % of control; under setting [12], 100 % of control; under setting [13], 100 % of control.
Consider `CC(C(=O)O)C(=O)O.[NH-]CC[NH-].[Pt+2]`, for which the T/C is 167 % of control (dose: 3.13 mg/kg/injection, schedule: Q01DX009 (ip), vehicle: water); 181 % of control (dose: 6.25 mg/kg/injection, schedule: Q01DX009 (ip), vehicle: water); 90 % of control (dose: 12.5 mg/kg/injection, schedule: Q01DX009 (ip), vehicle: water); 214 % of control (dose: 25.0 mg/kg/injection, schedule: Q01DX009 (ip), vehicle: water).
With `COC(=O)C(NC(=O)OCc1ccccc1)C(=O)OC`, the T/C under setting [3] was 104 % of control; the T/C under setting [5] is 104 % of control; the T/C under setting [4] is 95 % of control; the T/C under setting [6] is 109 % of control; the T/C (dose: 400.0 mg/kg/injection, schedule: Q01DX009 (ip), vehicle: saline with Tween-80) is 95 % of control; the T/C under setting [14] was 100 % of control.
Turning to `O=c1cc[nH]c2cc(C(F)(F)F)ccc12`, the T/C reads like this: (dose: 100.0 mg/kg/injection, schedule: Q04DX003 (ip), vehicle: saline sonified) 100 % of control; (dose: 200.0 mg/kg/injection, schedule: Q04DX003 (ip), vehicle: saline sonified) 95 % of control.
On to `CS(C)=O.CS(C)=O.[Cl][Rh]([Cl])([Cl])[Cl]`, for which the T/C (dose: 12.5 mg/kg/injection, schedule: Q01DX009 (ip), vehicle: saline) was 120 % of control; the T/C (dose: 22.0 mg/kg/injection, schedule: Q01DX009 (ip), vehicle: saline) is 116 % of control and 120 % of control; the T/C (dose: 33.0 mg/kg/injection, schedule: Q01DX009 (ip), vehicle: saline) is 95 % of control and 116 % of control; the T/C under setting [15] is 166 % of control.
As for `O=c1nc(Oc2ccccc2)nc2ncccn12`, the T/C (dose: 12.5 mg/kg/injection, schedule: Q01DX009 (ip), vehicle: saline with Tween-80) was 121 % of control.
